Measured values as given in ChEMBL document CHEMBL1201862, “PubChem BioAssay data set” (2004).
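Assay format: 96-well plates, 48-hour exposure. At the GI50, growth is halved.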 Calls of active or inactive are those of the source. No stated cut-off is given here; in the data, active = GI50 up to about 1.1 µM and inactive = higher.

Assays:
Assay in all cases: inhibition of tumour cell growth, NCI panel, 48 h
[1] = test system: SK-MEL-2
[2] = test system: RXF 393
[3] = test system: UACC-257
[4] = test system: ACHN
[5] = test system: HOP-62
[6] = test system: A549
[7] = test system: SK-MEL-28
[8] = test system: SK-OV-3
[9] = test system: HT-29
[10] = test system: OVCAR-8
[11] = test system: SW-620
[12] = test system: SN12C
[13] = test system: HL-60
[14] = test system: OVCAR-5
[15] = test system: SNB-75
[16] = test system: EKVX
[17] = test system: RPMI-8226

Measured: GI50

C=CCCCC(C#N)(c1ccccc1)N1CCCC1 (configuration not stated)
inactive: [1] > 100 µM | [2] > 100 µM | [3] > 100 µM | [4] > 100 µM | [5] > 100 µM | [6] > 100 µM | [7] > 100 µM | [8] > 100 µM | [9] > 100 µM | [10] > 100 µM | [11] > 100 µM | [12] > 100 µM | [13] > 100 µM | [14] > 100 µM | [15] > 100 µM | [16] > 100 µM | [17] > 100 µM

Cn1c(=O)c2c3ccccc3c(C(=O)c3ccccc3)n2c2ccccc21
inactive: [1] 15.5 µM | [2] 14.7 µM | [3] > 100 µM | [4] 24 µM | [5] > 42.8 µM | [6] 56.8 µM | [7] 17.8 µM | [9] 3.63 µM | [10] 16.4 µM | [11] 5.78 µM | [12] 9.33 µM | [13] 4.65 µM | [14] 17.3 µM | [15] 3.18 µM | [16] > 89.3 µM | [17] 3.55 µM

Cc1ccc(NC(=O)C2C3CCC(O3)C2C(=O)O)cc1 (configuration not stated)
inactive: [1] 64.9 µM | [2] 15.8 µM | [3] > 100 µM | [4] > 93.5 µM | [5] > 100 µM | [6] > 76.2 µM | [7] > 75 µM | [8] > 83.9 µM | [9] > 45 µM | [10] > 100 µM | [11] > 22.3 µM | [12] > 48.8 µM | [13] > 40.2 µM | [14] > 100 µM | [15] 31.9 µM | [16] > 94.4 µM | [17] 39.6 µM

Cc1cc(O)nc(CNC(=O)c2cccc(C(=O)NCc3cc(O)nc(C)n3)c2)n1
inactive: [1] > 100 µM | [2] > 100 µM | [3] > 100 µM | [4] > 100 µM | [5] > 100 µM | [6] > 100 µM | [7] > 100 µM | [8] > 100 µM | [9] > 100 µM | [10] > 100 µM | [11] > 100 µM | [12] > 100 µM | [13] > 100 µM | [14] > 100 µM | [15] > 100 µM | [16] > 100 µM | [17] > 100 µM
